Values quoted from earlier work, collected in patent publication US7739091B2, “Method for estimating protein-protein binding affinities” (The Research Foundation of State University of New York, priority 2006, dated 2010).

Conditions: side chain flanked by peptide bonds, water to n-octanol

Row | SMILES | transfer free energy [kcal/mol]
1 | C[C@H](N)C(=O)O [Ala] | 0.87
2 | N[C@@H](Cc1c[nH]cn1)C(=O)O [His] | 0.92
3 | N[C@@H](Cc1ccccc1)C(=O)O [Phe] | -1.81
4 | N[C@@H](CO)C(=O)O [Ser] | 0.85
5 | C[C@@H](O)[C@H](N)C(=O)O [Thr] | 0.95
6 | N[C@@H](Cc1ccc(O)cc1)C(=O)O [Tyr] | -0.8
